For 14 molecules, mortality and pest or weed control results are on record in patent US20200404919A1, “USE OF HETEROARYL-TRIAZOLE AND HETEROARYL-TETRAZOLE COMPOUNDS AS PESTICIDES IN PLANT PROTECTION” (Bayer Aktiengesellschaft, priority 2018, published 2020).

Holding throughout (assay type): in vivo
The subject of one assay is Phaedon cochleariae. Briefly: Phaedon cochleariae - spray test. Conditions: in Brassica rapa, foliar, 168 h, read-out: mortality in %. Here is the method:
Phaedon cochleariae—Spray Test
(§1) To produce a suitable preparation of active compound, 1 part by weight of active compound is mixed with the stated amount of solvents and is diluted with water, containing an emulsifier concentration of 1000 ppm, to the desired concentration. Further test concentrations are prepared by dilution with emulsifier containing water.
Chinese cabbage (Brassica pekinensis) leaf disks are sprayed with a preparation of the active ingredient of the desired concentration. Once dry, the leaf disks are infested with mustard beetle larvae (Phaedon cochleariae).
After 7 days mortality in % is determined. 100% means all beetle larvae have been killed and 0% means none of the beetle larvae have been killed.

In a further assay the test system is Spodoptera frugiperda. Briefly: Spodoptera frugiperda - spray test. Conditions: in Zea mays, 168 h, read-out: mortality in %. Here is the method: Spodoptera frugiperda—Spray Test
as §1
Maize (Zea mays) leaf sections are sprayed with a preparation of the active ingredient of the desired concentration. Once dry, the leaf sections are infested with fall armyworm larvae (Spodoptera frugiperda).
After 7 days mortality in % is determined. 100% means all caterpillars have been killed and 0% means none of the caterpillars have been killed.

A further assay relates to Myzus persicae. Briefly: Myzus persicae - oral test. The settings on record: 120 h, read-out: mortality in %. Here is the method: To produce a suitable preparation of active compound, 1 part by weight of active compound is mixed with the stated amount of solvent, and the concentrate is diluted with water to the desired concentration. 50 μl compound solution is filled in microtiter plates and 150 μl IPL41 insect medium (33%+15% sugar) is added to obtain a total volume of 200 μl per well. Afterwards the plates are sealed with parafilm through which a mixed population of the green peach aphid (Myzus persicae) can suck on the compound preparation.
(§2) After 5 days mortality in % is determined. 100% means all aphids have been killed and 0% means none of the aphids have been killed.

A further assay has as its system Aphis gossypii. Briefly: Aphis gossypii - oral test. The settings on record: 120 h, read-out: mortality in %. As for the experimental part: Solvent: 100 parts by weight acetone
To produce a suitable preparation of active compound, 1 part by weight of active compound is mixed with the stated amount of solvent, and the concentrate is diluted with water to the desired concentration.
50 μl compound solution is filled in microtiter plates and 150 μl IPL41 insect medium (33%+15% sugar) is added to obtain a total volume of 200 μl per well. Afterwards the plates are sealed with parafilm through which a mixed population of the cotton aphid (Aphis gossypii) can suck on the compound preparation.
as §2

Another assay deals with Diabrotica balteata. Nature of the assay: Diabrotica balteata - spray test. The settings on record: 168 h, 160 μg/well, germinated wheat seeds, larvae, after 7 days, read-out: efficacy in %. As for the experimental part: Diabrotica balteata—Spray Test
(§3) To produce a suitable preparation of active compound, 1 part by weight of active compound is mixed with the stated amount of solvent, and the concentrate is diluted with water, containing an emulsifier concentration of 1000 ppm, to the desired concentration. Further test concentrations are prepared by dilution with emulsifier containing water.
Soaked wheat seeds (Triticum aestivum) are placed in a multiple well plate filled with agar and some water and are incubated for 1 day to germinate (5 seeds per well). The germinated wheat seeds are sprayed with a test solution containing the desired concentration of the active ingredient. Afterwards each unit is infected with 10-20 larvae of the banded cucumber beetle (Diabrotica balteata).
After 7 days efficacy in % is determined. 100% means all the seedlings have grown up like in the untreated, uninfected control; 0% means none of the seedlings have grown.

In the next assay the test system is Nezara viridula. Nature of the assay: Nezara viridula - spray test 1. The settings on record: in Hordeum vulgare, 96 h, read-out: mortality in %. As for the experimental part: Nezara viridula—Spray Test 1
as §3
Barley plants (Hordeum vulgare) infested with larvae of the southern green stink bug (Nezara viridula) are sprayed with a test solution containing the desired concentration of the active ingredient.
After 4 days mortality in % is determined. 100% means all the stink bugs have been killed; 0% means none of the stink bugs have been killed.

The next assay concerns Nilaparvata lugens. Briefly: Nilaparvata lugens - spray test 1. The settings on record: in Oryza sativa, 96 h, read-out: mortality in %, 500 g/ha, rice plants, after 4 days. Here is the method: Nilaparvata lugens—Spray Test 1
as §1
Rice plants (Oryza sativa) are sprayed with a preparation of the active ingredient of the desired concentration and the plants are infested with the brown planthopper (Nilaparvata lugens).
After 4 days mortality in % is determined. 100% means all planthoppers have been killed and 0% means none of the planthoppers have been killed.

Turning to `CC(c1ncnn1-c1ncccn1)N(CC(F)F)C(=O)c1cc(Cl)cc(OC(F)(F)F)c1` (stereo not drawn) [Compound I-121, 3-chloro-N-(2,2-difluoroethyl)-N-[1-(2-pyrimidin-2-yl-1,2,4-triazol-3-yl)ethyl]-5-(trifluoromethoxy)benzamide], the mortality at 500 g/ha with Phaedon cochleariae, in the assay on Spodoptera frugiperda, in the assay on Nezara viridula and with Nilaparvata lugens was 100% throughout. Further, the mortality at 20 ppm in the assay with Myzus persicae was found to be 100%. The mortality at 100 ppm in the assay on Aphis gossypii worked out at 100%. Besides, in the assay on Diabrotica balteata, the pest or weed control at 160 µg/disc, 160 µg/well amounted to 100%.
For the molecule `CC(c1ncnn1-c1ncccn1)N(Cc1ccc(F)cc1)C(=O)c1cc(Cl)cc(C(F)(F)F)c1` (stereo not drawn) [Compound I-98], the mortality at 500 g/ha in the assay on Phaedon cochleariae is 100%; in the assay on Spodoptera frugiperda it was 83%; with Nezara viridula, 100%; in the assay on Nilaparvata lugens, 100%. Further, in the assay with Myzus persicae, the mortality at 20 ppm worked out at 100%. Besides, in the assay on Aphis gossypii, the mortality at 100 ppm turned out to be 100%. Moreover, in the assay with Diabrotica balteata, the pest or weed control at 160 µg/disc, 160 µg/well is 100%.
With `CC(c1ncnn1-c1ncccc1F)N(CC1CC1)C(=O)c1cc(Cl)cc(C(F)(F)F)c1` (stereo not drawn) [Compound I-106], the mortality at 500 g/ha with Phaedon cochleariae, in the assay with Spodoptera frugiperda, in the assay on Nezara viridula and in the assay on Nilaparvata lugens was 100% each time. The mortality at 20 ppm in the assay with Myzus persicae turned out to be 100%. Moreover, the mortality at 100 ppm with Aphis gossypii stood at 100%. Besides, in the assay with Diabrotica balteata, the pest or weed control at 160 µg/disc, 160 µg/well amounted to 100%.
With `Cc1nc(C(C)N(CC2CC2)C(=O)c2cc(Cl)cc(C(F)(F)F)c2)n(-c2ncc(Cl)cn2)n1` (stereo not drawn) [Compound I-78, 3-chloro-N-[1-[2-(5-chloropyrimidin-2-yl)-5-methyl-1,2,4-triazol-3-yl]ethyl]-N-(cyclopropylmethyl)-5-(trifluoromethyl)benzamide], the mortality at 500 g/ha with Phaedon cochleariae, in the assay on Spodoptera frugiperda, in the assay with Nezara viridula and in the assay with Nilaparvata lugens was 100% in each case. Also, the mortality at 20 ppm with Myzus persicae turned out to be 100%. The mortality at 100 ppm in the assay on Aphis gossypii was found to be 100%. The pest or weed control at 160 µg/disc, 160 µg/well in the assay on Diabrotica balteata was determined as 100%.
Consider `CC(NC(=O)c1cncc(C(F)(F)F)c1)c1ncnn1-c1ncccn1` (stereo not drawn) [Compound I-115], for which the mortality at 500 g/ha with Phaedon cochleariae worked out at 100%; in the assay with Spodoptera frugiperda, 83%; with Nezara viridula, 100%; in the assay on Nilaparvata lugens, 100%. For the same molecule, in the assay on Myzus persicae, the mortality at 20 ppm was determined as 100%. The mortality at 100 ppm in the assay on Aphis gossypii came out at 100%. Also, in the assay on Diabrotica balteata, the pest or weed control at 160 µg/disc, 160 µg/well is 100%.
As to `CC(c1ncnn1-c1ncccn1)N(CC(F)F)C(=O)c1cccc(SC(F)(F)F)c1` (stereo not drawn) [Compound I-122], the mortality at 500 g/ha in the assay with Phaedon cochleariae, with Nezara viridula and with Nilaparvata lugens was 100% throughout. In the assay on Myzus persicae, the mortality at 20 ppm stood at 100%. Besides, in the assay with Aphis gossypii, the mortality at 100 ppm came out at 100%. In the assay on Diabrotica balteata, the pest or weed control at 160 µg/disc, 160 µg/well was found to be 100%.
For `C[C@H](NC(=O)c1cc(C(F)(F)F)cc(C(F)(F)F)c1)c1ncnn1-c1ncccn1` [Compound I-66, N-[(1S)-1-(2-pyrimidin-2-yl-1,2,4-triazol-3-yl)ethyl]-3,5-bis(trifluoromethyl)benzamide], the mortality at 500 g/ha in the assay with Phaedon cochleariae, in the assay with Spodoptera frugiperda, with Nezara viridula and with Nilaparvata lugens was 100% in each case. In the assay with Myzus persicae, the mortality at 20 ppm was determined as 100%. For the same molecule, in the assay on Aphis gossypii, the mortality at 100 ppm turned out to be 100%. Also, the pest or weed control at 160 µg/disc, 160 µg/well in the assay on Diabrotica balteata was 100%.
Turning to `CC(c1ncnn1-c1ncccn1)N(CC1CC1)C(=O)c1cc(Br)cc(C(F)(F)F)c1` (stereo not drawn) [Compound I-62, 3-bromo-N-(cyclopropylmethyl)-N-[1-(2-pyrimidin-2-yl-1,2,4-triazol-3-yl)ethyl]-5-(trifluoromethyl)benzamide], the mortality at 500 g/ha in the assay with Phaedon cochleariae was 100%; with Spodoptera frugiperda it was 100%; in the assay on Nezara viridula it was 90%; with Nilaparvata lugens it was 90%. Further, the mortality at 20 ppm in the assay with Myzus persicae stood at 100%. Besides, the mortality at 100 ppm in the assay with Aphis gossypii was found to be 100%. Moreover, the pest or weed control at 160 µg/disc, 160 µg/well with Diabrotica balteata is 100%.
Turning to `CC(c1ncnn1-c1ncccn1)N(CC1CC1)C(=O)c1cncc(C(F)(F)F)c1` (stereo not drawn) [Compound I-28, N-(cyclopropylmethyl)-N-[1-(2-pyrimidin-2-yl-1,2,4-triazol-3-yl)ethyl]-5-(trifluoromethyl)pyridine-3-carboxamide], the mortality at 500 g/ha in the assay on Phaedon cochleariae, in the assay with Nezara viridula and with Nilaparvata lugens was 100% each time. The mortality at 20 ppm with Myzus persicae is 100%. Moreover, the mortality at 100 ppm in the assay with Aphis gossypii turned out to be 100%. Besides, the pest or weed control at 160 µg/disc, 160 µg/well in the assay on Diabrotica balteata stood at 100%.
Turning to `CC(NC(=O)c1cccc(C#N)c1)c1ncnn1-c1ncccn1` (stereo not drawn) [Compound I-52], the mortality at 500 g/ha with Phaedon cochleariae, with Nezara viridula and in the assay with Nilaparvata lugens was 100% each time. Also, the mortality at 20 ppm in the assay with Myzus persicae came to 90%. Moreover, the mortality at 100 ppm in the assay with Aphis gossypii worked out at 100%.
As for `CC(c1ncnn1-c1ncccn1)N(CCC(F)(F)F)C(=O)c1cc(Cl)cc(C(F)(F)F)c1` (stereo not drawn) [Compound I-26, 3-chloro-N-[1-(2-pyrimidin-2-yl-1,2,4-triazol-3-yl)ethyl]-5-(trifluoromethyl)-N-(3,3,3-trifluoropropyl)benzamide], the mortality at 500 g/ha in the assay with Phaedon cochleariae is 100%; with Spodoptera frugiperda, 100%; with Nilaparvata lugens it was 90%. The mortality at 20 ppm in the assay with Myzus persicae worked out at 100%. Further, the mortality at 100 ppm in the assay with Aphis gossypii worked out at 100%. For the same molecule, the pest or weed control at 160 µg/disc, 160 µg/well with Diabrotica balteata was 100%.
Turning to `CC(c1ncnn1-c1ncccn1)N(Cc1ccccc1)C(=O)c1cc(Cl)cc(C(F)(F)F)c1` (stereo not drawn) [Compound I-99], the mortality at 500 g/ha with Phaedon cochleariae amounted to 100%; in the assay with Spodoptera frugiperda it was 100%; in the assay with Nezara viridula, 100%; with Nilaparvata lugens, 90%. For the same molecule, the mortality at 20 ppm in the assay with Myzus persicae worked out at 100%. Also, the mortality at 100 ppm in the assay on Aphis gossypii amounted to 100%. In addition, the pest or weed control at 160 µg/disc, 160 µg/well in the assay on Diabrotica balteata came out at 100%.
As for `C[C@H](NC(=O)c1cc(Cl)cc(C(F)(F)F)c1)c1ncnn1-c1ccccn1` [Compound I-117, 3-chloro-N-[(1S)-1-[2-(2-pyridyl)-1,2,4-triazol-3-yl]ethyl]-5-(trifluoromethyl)benzamide], the mortality at 500 g/ha in the assay on Phaedon cochleariae, in the assay on Spodoptera frugiperda, in the assay on Nezara viridula and in the assay on Nilaparvata lugens was 100% each time. In the assay with Myzus persicae, the mortality at 20 ppm was 100%. In addition, the mortality at 100 ppm in the assay with Aphis gossypii is 100%. For the same molecule, the pest or weed control at 160 µg/disc, 160 µg/well with Diabrotica balteata was 100%.
For `CC(c1ncnn1-c1ncccn1)N(C)C(=O)c1cc(Cl)cc(C(F)(F)F)c1` (stereo not drawn) [Compound I-100, 3-chloro-N-methyl-N-[1-(2-pyrimidin-2-yl-1,2,4-triazol-3-yl)ethyl]-5-(trifluoromethyl)benzamide], the mortality at 500 g/ha in the assay on Phaedon cochleariae, in the assay on Spodoptera frugiperda, in the assay with Nezara viridula and in the assay with Nilaparvata lugens was 100% each time. The mortality at 20 ppm in the assay on Myzus persicae is 100%. Also, the mortality at 100 ppm in the assay with Aphis gossypii turned out to be 100%. Moreover, the pest or weed control at 160 µg/disc, 160 µg/well in the assay on Diabrotica balteata is 100%.
